Reference: publication PMC9864331, “Biosynthesis of α-Bisabolol by Farnesyl Diphosphate Synthase and α-Bisabolol Synthase and Their Related Transcription Factors in Matricaria recutita L” (International Journal of Molecular Sciences, 2023)

Biological target: T1, MrBBS (Matricaria chamomilla, UniProt A0A0A0RIB3)
T1 construct: pCold TF (trigger factor) fusion, E. coli BL21(DE3) pLysS; assayed as crude enzyme
T1 sequence (A0A0A0RIB3 1-572): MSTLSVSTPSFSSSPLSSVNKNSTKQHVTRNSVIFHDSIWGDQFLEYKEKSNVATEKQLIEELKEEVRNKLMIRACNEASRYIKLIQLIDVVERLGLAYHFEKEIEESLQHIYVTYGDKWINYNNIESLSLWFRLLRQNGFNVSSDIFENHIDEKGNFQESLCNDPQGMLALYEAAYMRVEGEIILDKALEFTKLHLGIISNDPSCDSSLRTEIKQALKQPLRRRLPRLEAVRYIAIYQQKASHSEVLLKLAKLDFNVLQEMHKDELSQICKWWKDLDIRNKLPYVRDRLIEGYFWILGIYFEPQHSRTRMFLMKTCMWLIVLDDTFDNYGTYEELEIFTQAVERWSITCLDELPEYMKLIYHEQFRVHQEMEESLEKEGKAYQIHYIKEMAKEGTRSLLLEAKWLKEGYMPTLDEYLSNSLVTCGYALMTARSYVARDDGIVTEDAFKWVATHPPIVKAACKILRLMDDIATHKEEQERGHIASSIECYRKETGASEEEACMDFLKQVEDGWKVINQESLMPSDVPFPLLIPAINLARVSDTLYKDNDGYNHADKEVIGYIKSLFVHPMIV
Assay: GC-MS of hexane-extracted products
Format: biochemical
Details: 100 µM FPP; 50 mM Tris-HCl pH 7.5; 10 mM MgCl2; 20 µg crude enzyme; product alpha-bisabolol

With CC(C)=CCC/C(C)=C/CC/C(C)=C/COP(=O)(O)OP(=O)(O)O [FPP] the “GC-MS of hexane-extracted products” value was “MrBBS catalyzed the conversion of FPP into α-bisabolol”.
